According to article PMC4890880 (ACS infectious diseases, 2016):

What follows are compounds tested on HepG2-A16-CD81EGFP cells. Conditions: read-out: Tox_IC50; sheet 2nd round; HepG2 cytotoxicity.

Row | Compound | IC50 [µM]
1 | C[C@@H]1CCCCO[C@H](CN(C)S(=O)(=O)c2ccc(F)cc2)[C@@H](C)CN([C@@H](C)CO)C(=O)c2cc(N(C)C)ccc2O1 [BRD-K27035180-001-01-0] | > 10

Same assay, conditions: sheet 2nd round; maximal inhibition in dose response

Row | Compound | Tox_max_inhibition (%)
2 | C[C@@H]1CCCCO[C@H](CN(C)S(=O)(=O)c2ccc(F)cc2)[C@@H](C)CN([C@@H](C)CO)C(=O)c2cc(N(C)C)ccc2O1 [BRD-K27035180-001-01-0] | 10

Each compound was assayed on Plasmodium berghei (Pb-Luc) exoerythrocytic-stage parasites. Conditions: first series of columns; concentration 0.000508053; fraction of control.

Row | Compound | normalized signal at concentration 0.000508053
3 | C[C@@H]1CCCCO[C@H](CN(C)S(=O)(=O)c2ccc(F)cc2)[C@@H](C)CN([C@@H](C)CO)C(=O)c2cc(N(C)C)ccc2O1 [BRD-K27035180-001-01-0] | 0.9801

Same assay, conditions: first series of columns; concentration 0.00152416; fraction of control

Row | Compound | normalized signal at concentration 0.00152416
4 | C[C@@H]1CCCCO[C@H](CN(C)S(=O)(=O)c2ccc(F)cc2)[C@@H](C)CN([C@@H](C)CO)C(=O)c2cc(N(C)C)ccc2O1 [BRD-K27035180-001-01-0] | 1.117

Same assay, conditions: first series of columns; concentration 0.00457247; fraction of control

Row | Compound | normalized signal at concentration 0.00457247
5 | C[C@@H]1CCCCO[C@H](CN(C)S(=O)(=O)c2ccc(F)cc2)[C@@H](C)CN([C@@H](C)CO)C(=O)c2cc(N(C)C)ccc2O1 [BRD-K27035180-001-01-0] | 0.8737

Same assay, conditions: first series of columns; concentration 0.0137174; fraction of control

Row | Compound | normalized signal at concentration 0.0137174
6 | C[C@@H]1CCCCO[C@H](CN(C)S(=O)(=O)c2ccc(F)cc2)[C@@H](C)CN([C@@H](C)CO)C(=O)c2cc(N(C)C)ccc2O1 [BRD-K27035180-001-01-0] | 0.9285

Same assay, conditions: first series of columns; concentration 0.0411523; fraction of control

Row | Compound | normalized signal at concentration 0.0411523
7 | C[C@@H]1CCCCO[C@H](CN(C)S(=O)(=O)c2ccc(F)cc2)[C@@H](C)CN([C@@H](C)CO)C(=O)c2cc(N(C)C)ccc2O1 [BRD-K27035180-001-01-0] | 1.068

Same assay, conditions: first series of columns; concentration 0.123457; fraction of control

Row | Compound | normalized signal at concentration 0.123457
8 | C[C@@H]1CCCCO[C@H](CN(C)S(=O)(=O)c2ccc(F)cc2)[C@@H](C)CN([C@@H](C)CO)C(=O)c2cc(N(C)C)ccc2O1 [BRD-K27035180-001-01-0] | 0.9867

Same assay, conditions: first series of columns; concentration 0.37037; fraction of control

Row | Compound | normalized signal at concentration 0.37037
9 | C[C@@H]1CCCCO[C@H](CN(C)S(=O)(=O)c2ccc(F)cc2)[C@@H](C)CN([C@@H](C)CO)C(=O)c2cc(N(C)C)ccc2O1 [BRD-K27035180-001-01-0] | 0.8491

Same assay, conditions: first series of columns; concentration 1.11111; fraction of control

Row | Compound | normalized signal at concentration 1.11111
10 | C[C@@H]1CCCCO[C@H](CN(C)S(=O)(=O)c2ccc(F)cc2)[C@@H](C)CN([C@@H](C)CO)C(=O)c2cc(N(C)C)ccc2O1 [BRD-K27035180-001-01-0] | 1.048

Same assay, conditions: first series of columns; concentration 3.33333; fraction of control

Row | Compound | normalized signal at concentration 3.33333
11 | C[C@@H]1CCCCO[C@H](CN(C)S(=O)(=O)c2ccc(F)cc2)[C@@H](C)CN([C@@H](C)CO)C(=O)c2cc(N(C)C)ccc2O1 [BRD-K27035180-001-01-0] | 0.9262

Same assay, conditions: first series of columns; concentration 10; fraction of control

Row | Compound | normalized signal at concentration 10
12 | C[C@@H]1CCCCO[C@H](CN(C)S(=O)(=O)c2ccc(F)cc2)[C@@H](C)CN([C@@H](C)CO)C(=O)c2cc(N(C)C)ccc2O1 [BRD-K27035180-001-01-0] | 0.8261

Same assay, conditions: read-out: PbLuc_IC50; sheet 2nd round; Pb-Luc exoerythrocytic stage; 10-point dose response, top concentration 10

Row | Compound | IC50 [µM]
13 | C[C@@H]1CCCCO[C@H](CN(C)S(=O)(=O)c2ccc(F)cc2)[C@@H](C)CN([C@@H](C)CO)C(=O)c2cc(N(C)C)ccc2O1 [BRD-K27035180-001-01-0] | > 10

Same assay, conditions: second series of columns (replicate); concentration 0.000508053; fraction of control

Row | Compound | normalized signal at concentration 0.000508053
14 | C[C@@H]1CCCCO[C@H](CN(C)S(=O)(=O)c2ccc(F)cc2)[C@@H](C)CN([C@@H](C)CO)C(=O)c2cc(N(C)C)ccc2O1 [BRD-K27035180-001-01-0] | 0.9613

Same assay, conditions: second series of columns (replicate); concentration 0.00152416; fraction of control

Row | Compound | normalized signal at concentration 0.00152416
15 | C[C@@H]1CCCCO[C@H](CN(C)S(=O)(=O)c2ccc(F)cc2)[C@@H](C)CN([C@@H](C)CO)C(=O)c2cc(N(C)C)ccc2O1 [BRD-K27035180-001-01-0] | 1.064

Same assay, conditions: second series of columns (replicate); concentration 0.00457247; fraction of control

Row | Compound | normalized signal at concentration 0.00457247
16 | C[C@@H]1CCCCO[C@H](CN(C)S(=O)(=O)c2ccc(F)cc2)[C@@H](C)CN([C@@H](C)CO)C(=O)c2cc(N(C)C)ccc2O1 [BRD-K27035180-001-01-0] | 0.9935

Same assay, conditions: second series of columns (replicate); concentration 0.0137174; fraction of control

Row | Compound | normalized signal at concentration 0.0137174
17 | C[C@@H]1CCCCO[C@H](CN(C)S(=O)(=O)c2ccc(F)cc2)[C@@H](C)CN([C@@H](C)CO)C(=O)c2cc(N(C)C)ccc2O1 [BRD-K27035180-001-01-0] | 0.8637

Same assay, conditions: second series of columns (replicate); concentration 0.0411523; fraction of control

Row | Compound | normalized signal at concentration 0.0411523
18 | C[C@@H]1CCCCO[C@H](CN(C)S(=O)(=O)c2ccc(F)cc2)[C@@H](C)CN([C@@H](C)CO)C(=O)c2cc(N(C)C)ccc2O1 [BRD-K27035180-001-01-0] | 1.045

Same assay, conditions: second series of columns (replicate); concentration 0.123457; fraction of control

Row | Compound | normalized signal at concentration 0.123457
19 | C[C@@H]1CCCCO[C@H](CN(C)S(=O)(=O)c2ccc(F)cc2)[C@@H](C)CN([C@@H](C)CO)C(=O)c2cc(N(C)C)ccc2O1 [BRD-K27035180-001-01-0] | 0.8684

Same assay, conditions: second series of columns (replicate); concentration 0.37037; fraction of control

Row | Compound | normalized signal at concentration 0.37037
20 | C[C@@H]1CCCCO[C@H](CN(C)S(=O)(=O)c2ccc(F)cc2)[C@@H](C)CN([C@@H](C)CO)C(=O)c2cc(N(C)C)ccc2O1 [BRD-K27035180-001-01-0] | 1.143

Same assay, conditions: second series of columns (replicate); concentration 1.11111; fraction of control

Row | Compound | normalized signal at concentration 1.11111
21 | C[C@@H]1CCCCO[C@H](CN(C)S(=O)(=O)c2ccc(F)cc2)[C@@H](C)CN([C@@H](C)CO)C(=O)c2cc(N(C)C)ccc2O1 [BRD-K27035180-001-01-0] | 0.8369

Same assay, conditions: second series of columns (replicate); concentration 3.33333; fraction of control

Row | Compound | normalized signal at concentration 3.33333
22 | C[C@@H]1CCCCO[C@H](CN(C)S(=O)(=O)c2ccc(F)cc2)[C@@H](C)CN([C@@H](C)CO)C(=O)c2cc(N(C)C)ccc2O1 [BRD-K27035180-001-01-0] | 1.121

Same assay, conditions: second series of columns (replicate); concentration 10; fraction of control

Row | Compound | normalized signal at concentration 10
23 | C[C@@H]1CCCCO[C@H](CN(C)S(=O)(=O)c2ccc(F)cc2)[C@@H](C)CN([C@@H](C)CO)C(=O)c2cc(N(C)C)ccc2O1 [BRD-K27035180-001-01-0] | 0.5603

Same assay, conditions: sheet 2nd round; maximal inhibition in dose response

Row | Compound | PbLuc_max_inhibition (%)
24 | C[C@@H]1CCCCO[C@H](CN(C)S(=O)(=O)c2ccc(F)cc2)[C@@H](C)CN([C@@H](C)CO)C(=O)c2cc(N(C)C)ccc2O1 [BRD-K27035180-001-01-0] | 44
